Test results published in PubChem BioAssay (NCI).
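The compound was tested at five concentrations on cells cultured in 96-well plates, with a 48-hour exposure period. At the GI50, growth is halved. The concentration for full growth arrest is given as TGI.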

Legend:
Experiment in all cases: DTP human tumour cell line panel, 48 h
[1] = test system: HL-60(TB) leukemia
[2] = test system: OVCAR-5 ovarian
[3] = test system: MDA-MB-435
[4] = test system: COLO 205 colon
[5] = test system: HOP-92 NSCLC
[6] = test system: CCRF-CEM leukemia
[7] = test system: SK-MEL-28 melanoma
[8] = test system: A549 NSCLC
[9] = test system: MDA-MB-468 breast
[10] = test system: UO-31 renal
[11] = test system: IGROV1 ovarian
[12] = test system: NCI-H23 lung
[13] = test system: SR leukemia
[14] = test system: MOLT-4 leukemia
[15] = test system: HCT-116 colon
[16] = test system: HT29 colon
[17] = test system: SF-539 CNS
[18] = test system: SW-620 colon
[19] = test system: MDA-MB-231 breast
[20] = test system: SF-295 CNS
[21] = test system: EKVX NSCLC
[22] = test system: SK-OV-3 ovarian
[23] = test system: SN12C renal
[24] = test system: 786-0 renal
[25] = test system: RPMI-8226 leukemia
[26] = test system: MALME-3M melanoma
[27] = test system: LOX IMVI melanoma
[28] = test system: NCI-H226 lung
[29] = test system: OVCAR-3 ovarian
[30] = test system: NCI-H460 lung
[31] = test system: TK-10 renal
[32] = test system: SNB-19 CNS
[33] = test system: UACC-257 melanoma
[34] = test system: OVCAR-4 ovarian
[35] = test system: NCI/ADR-RES ovarian
[36] = test system: KM12 colon
[37] = test system: SK-MEL-5 melanoma
[38] = test system: MCF7 breast
[39] = test system: BT-549 breast
[40] = test system: HS 578T breast
[41] = test system: HOP-62 NSCLC
[42] = test system: SK-MEL-2 melanoma
[43] = test system: NCI-H522 lung
[44] = test system: HCC-2998 colon
[45] = test system: PC-3 prostate
[46] = test system: UACC-62 melanoma
[47] = test system: RXF 393 renal
[48] = test system: K-562 leukemia
[49] = test system: A498 renal
[50] = test system: SF-268 CNS
[51] = test system: U251 CNS
[52] = test system: OVCAR-8 ovarian
[53] = test system: CAKI-1 renal
[54] = test system: HCT-15 colon
[55] = test system: ACHN renal
[56] = test system: DU-145 prostate
[57] = test system: M14 melanoma
[58] = test system: SNB-75 CNS
[59] = test system: T-47D breast

Compound: COc1ccc(N=Nc2c(N)nn3c(-c4cc5cc(Br)ccc5oc4=O)ccnc23)cc1
- GI50 [1]: > 100 µM
- TGI [1]: > 100 µM
- GI50 [2]: 4.86 µM
- TGI [2]: 33.8 µM
- GI50 [3]: 7.87 µM
- TGI [3]: > 100 µM
- GI50 [4]: 6.15 µM
- TGI [4]: 52.3 µM
- GI50 [5]: 2.48 µM
- TGI [5]: 7.25 µM
- GI50 [6]: > 100 µM
- TGI [6]: > 100 µM
- GI50 [7]: 4.78 µM
- TGI [7]: 19 µM
- GI50 [8]: 3.7 µM
- TGI [8]: 16.9 µM
- GI50 [9]: 1.86 µM
- TGI [9]: 6.2 µM
- GI50 [10]: 3.33 µM
- TGI [10]: 15.4 µM
- GI50 [11]: 6.28 µM
- TGI [11]: 22.8 µM
- GI50 [12]: 2.98 µM
- TGI [12]: 10.1 µM
- GI50 [13]: 99.7 µM
- TGI [13]: > 100 µM
- GI50 [14]: > 100 µM
- TGI [14]: > 100 µM
- GI50 [15]: 3.69 µM
- TGI [15]: 12.4 µM
- GI50 [16]: 3.51 µM
- TGI [16]: > 100 µM
- GI50 [17]: 2.54 µM
- TGI [17]: 6.26 µM
- GI50 [18]: 5.86 µM
- TGI [18]: 59.6 µM
- GI50 [19]: 2.9 µM
- TGI [19]: 10.1 µM
- GI50 [20]: 2.7 µM
- TGI [20]: 8.53 µM
- GI50 [21]: 9.79 µM
- TGI [21]: 35.5 µM
- GI50 [22]: 3.67 µM
- TGI [22]: 10.7 µM
- GI50 [23]: 3.21 µM
- TGI [23]: 14.1 µM
- GI50 [24]: 2.36 µM
- TGI [24]: 5.9 µM
- GI50 [25]: 10.9 µM
- TGI [25]: > 100 µM
- GI50 [26]: 3 µM
- TGI [26]: 11.6 µM
- GI50 [27]: 4.72 µM
- TGI [27]: 16.4 µM
- GI50 [28]: 3.72 µM
- TGI [28]: 14.5 µM
- GI50 [29]: 3.85 µM
- TGI [29]: > 100 µM
- GI50 [30]: 2.96 µM
- TGI [30]: 11.1 µM
- GI50 [31]: 7.89 µM
- TGI [31]: 24.8 µM
- GI50 [32]: 4.05 µM
- TGI [32]: 16.3 µM
- GI50 [33]: 7.3 µM
- TGI [33]: 32 µM
- GI50 [34]: 3.69 µM
- TGI [34]: 19.3 µM
- GI50 [35]: 3.42 µM
- TGI [35]: 13.1 µM
- GI50 [36]: 4.17 µM
- TGI [36]: > 100 µM
- GI50 [37]: 3.56 µM
- TGI [37]: 13.6 µM
- GI50 [38]: 3.5 µM
- TGI [38]: 16.4 µM
- GI50 [39]: 4.38 µM
- TGI [39]: 14.8 µM
- GI50 [40]: 3.08 µM
- TGI [40]: > 100 µM
- GI50 [41]: 2.09 µM
- TGI [41]: 5.21 µM
- GI50 [42]: 4.01 µM
- TGI [42]: 18.2 µM
- GI50 [43]: 2.07 µM
- TGI [43]: 6.43 µM
- GI50 [44]: 4.63 µM
- TGI [44]: 23.6 µM
- GI50 [45]: 4.56 µM
- TGI [45]: 71.5 µM
- GI50 [46]: 2.98 µM
- TGI [46]: 12.1 µM
- GI50 [47]: 2.34 µM
- TGI [47]: 7 µM
- GI50 [48]: 11.1 µM
- TGI [48]: > 100 µM
- GI50 [49]: 2.64 µM
- TGI [49]: 9.09 µM
- GI50 [50]: 3.72 µM
- TGI [50]: 20 µM
- GI50 [51]: 1.89 µM
- TGI [51]: 4.24 µM
- GI50 [52]: 2.93 µM
- TGI [52]: 11.1 µM
- GI50 [53]: 3.47 µM
- TGI [53]: 15.5 µM
- GI50 [54]: 4.63 µM
- TGI [54]: 79.8 µM
- GI50 [55]: 2.52 µM
- TGI [55]: 7.17 µM
- GI50 [56]: 5.43 µM
- TGI [56]: > 100 µM
- GI50 [57]: 12.5 µM
- TGI [57]: > 100 µM
- GI50 [58]: 1.73 µM
- TGI [58]: 5.34 µM
- GI50 [59]: 3.12 µM
- TGI [59]: 13.5 µM
